Article PMC3160329, “Functional Dissection of the Proton Pumping Modules of Mitochondrial Complex I” (PLoS Biology, 2011)

Target: T1, subcomplex nb8mΔ (Yarrowia lipolytica, UniProt Q9B6E8+Q9UUT7+Q9UUU1+Q9UUU2)
T1 construct: gene nucm; complex I subcomplex lacking 14 subunits of the PD module (incl. ND4, ND5, NB8M); about 680 kDa; C-terminal His tag on NUGM; purified, asolectin proteoliposomes; with NADH-ubiquinone oxidoreductase 75 kDa subunit; NADH-ubiquinone oxidoreductase 30 kDa subunit; NADH-ubiquinone oxidoreductase 24 kDa subunit; NADH-ubiquinone oxidoreductase 23 kDa subunit; NADH-ubiquinone oxidoreductase chain 2; NADH-ubiquinone oxidoreductase chain 3; NADH-ubiquinone oxidoreductase chain 6; NADH-ubiquinone oxidoreductase chain 4L
Assay: NADH:DBQ oxidoreductase activity, NADH oxidation
Format: biochemical
Details: 100 µM DBQ, 100 µM NADH, pH 7.2, 30 °C, proteoliposomes

| Structure (SMILES) | NADH:DBQ oxidoreductase activity, NADH oxidation (electron acceptor) | NADH:DBQ oxidoreductase activity, NADH oxidation (electron donor) |
| --- | --- | --- |
| CCCCCCCCCCC1=C(C)C(=O)C(OC)=C(OC)C1=O [DBQ, decylubiquinone] | addition of NADH and the ubiquinone analogue DBQ to subcomplex nb8mΔ proteoliposomes | – |
| NC(=O)C1=CN([C@@H]2O[C@H](COP(=O)(O)OP(=O)(O)OC[C@H]3O[C@@H](n4cnc5c(N)ncnc54)[C@H](O)[C@@H]3O)[C@@H](O)[C@H]2O)C=CC1 [NADH] | – | addition of NADH and the ubiquinone analogue DBQ to subcomplex nb8mΔ proteoliposomes |
